This is an account of results in US7645759B2, “Non-peptide bradykinin antagonists and pharmaceutical compositions therefrom” (Istituto Luso Farmaco D'Italia S.p.A., priority 2004, dated 2010).

By pKi is commonly meant −log10 of the Ki, conventionally taken in molar units. Usually pA2 stands for the negative logarithm of the molar antagonist concentration that doubles the agonist concentration needed for the same response. A higher pA2 goes with a more potent antagonist.

Structures are written as SMILES. Counter-ions that a name gives are not always drawn. Like-named read-outs stand apart in the source and are kept apart here.

Assay [1] concerns the target T1, B2 human receptor (Homo sapiens, UniProt P30411).
T1 construct: expressed in transfected cells; host or cells: CHO cells
T1 sequence (P30411 1-391): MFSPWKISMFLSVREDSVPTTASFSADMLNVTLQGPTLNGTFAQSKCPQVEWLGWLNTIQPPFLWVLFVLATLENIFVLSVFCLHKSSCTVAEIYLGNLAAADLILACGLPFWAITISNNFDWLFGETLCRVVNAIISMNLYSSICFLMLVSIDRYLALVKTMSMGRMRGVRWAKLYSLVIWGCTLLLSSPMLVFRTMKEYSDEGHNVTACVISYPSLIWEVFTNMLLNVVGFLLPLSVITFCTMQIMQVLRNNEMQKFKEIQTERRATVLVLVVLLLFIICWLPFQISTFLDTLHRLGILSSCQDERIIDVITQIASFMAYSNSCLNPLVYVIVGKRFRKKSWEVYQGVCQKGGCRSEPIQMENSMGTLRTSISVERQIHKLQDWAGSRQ
The assay can be described thus: Binding to the human B2 receptor expressed in CHO cells.

Assay [2] deals with T1, B2 human receptor. Nature of the assay: cell-based.
The subject of assay [3] is BK-induced bronchospasm. Nature of the assay: Inhibition of BK-induced bronchospasm in the guinea pig. It is filed as in vivo. The conditions noted are these: intratracheal dose which inhibited by 80% bronchial constriction for at least 210 min; for ED80: Cavia porcellus, inhaled or nasal, 3.5 h, read-out: it Dose. How it is done: The in vivo activity of the compounds of the present invention was evaluated as effectiveness in inhibiting BK-induced bronchospasm in the guinea pig (Tramontana, et al., J. Pharmacol. Exp. Therap. 296:1051-1057 (2001)), measuring the it dose (it=intratracheal administration) (in nmols/kg) which inhibited by 80% bronchial constriction for at least 210 min.

The mark [4] stands for this setting: human B2 receptor expressed in CHO cells, read-out: pKi (converted).
[5] abbreviates: antagonistic activity, bradykinin-induced inositol production, CHO cells transfected with B2 human receptor, read-out: pA2 (converted).
Setting [6] is: human B2 receptor expressed in CHO cells.
The mark [7] stands for this setting: antagonistic activity, bradykinin-induced inositol production, CHO cells transfected with B2 human receptor.

In turn, `Cc1cc(C)c2cccc(OCc3c(Cl)ccc(S(=O)(=O)NC4(C(=O)N5CCN(C(=O)C(CCCC[N+](C)(C)C)[N+](C)(C)C)CC5)CCCC4)c3Cl)c2n1` (stereo not shown) [WO03103671 ex 88] showed a Ki in assay [1] of 0.2 nM. The same compound showed a Kb in assay [2] of 6.31 nM.
`Cc1cc(C)c2cccc(OCc3c(Cl)ccc(S(=O)(=O)NC4(C(=O)N5CCN(C(=O)C(N)CCCCN)CC5)CCCC4)c3Cl)c2n1` (stereo not shown) [WO03103671 ex 63]: the Ki in assay [1] (setting [4]) is 0.794 nM. Also, the Kb in assay [2] (setting [5]) was 1.26 nM. For the same compound, in assay [3], the ED80 came out at 0.3 µmol/kg.
`Cc1cc(C)c2cccc(OCc3c(Cl)ccc(S(=O)(=O)NC4(C(=O)N5CCN(C(=O)C(N)CCCCN(C)C)CC5)CCCC4)c3Cl)c2n1` (stereo not shown) [WO03103671 ex 59]: the Ki in assay [1] (setting [4]) was 1.58 nM. Besides, the Kb in assay [2] (setting [5]) is 1 nM. In assay [3], the ED80 worked out at 0.3 µmol/kg.
In assay [1], `Cc1ccc2cccc(OCc3c(Cl)ccc(S(=O)(=O)NC4(C(=O)N5CCN(C(=O)C(N)CCCNC(=N)N)CC5)CCCC4)c3Cl)c2n1` (stereo not shown) [WO03103671 ex 55] showed a Ki of 2 nM. In assay [2], this compound showed a Kb of 3.98 nM. Besides, the ED80 in assay [3] came to 0.3 µmol/kg.
Turning to `Cc1ccc2cccc(OCc3c(Cl)ccc(S(=O)(=O)NC4(C(=O)N5CCN(C(=O)C(N)CCCCN(C)C)CC5)CCCC4)c3Cl)c2n1` (stereo not shown) [WO03103671 ex 57], in assay [1], the Ki was 1.58 nM. In assay [2], this compound gave a Kb of 5.01 nM. Further, the ED80 in assay [3] stood at 0.3 µmol/kg.
As for `Cc1cc(C)c2cccc(OCc3c(Cl)ccc(S(=O)(=O)NC4(C(=O)N5CCN(C(=O)[C@@H](N)CCC[N+](C)(C)C)CC5)CCCC4)c3Cl)c2n1` [Example 4, [4-(S)-Amino-5-(4-{1-[2,4-dichloro-3-(2,4-dimethyl-quinolin-8-yloxymethyl)-benzenesulfonylamino]cyclopentanecarbonyl}piperazin-1-yl)-5-oxo-pentyl]-trimethyl-ammonium chloride, dihydrochloride.], the Ki in assay [1] (setting [4]) was 0.0794 nM. Besides, the Kb in assay [2] (setting [5]) was 0.398 nM. For the same compound, in assay [3], the ED80 came out at 0.1 µmol/kg.
`Cc1cc(C)c2cccc(OCc3c(Cl)ccc(S(=O)(=O)NC4(C(=O)N5CCN(C(=O)[C@@H](N)CCC[N+](C)(C)C)CC5)CCOCC4)c3Cl)c2n1.Cl.Cl.[Cl-]` [Example 1, (4-(S)-amino-5-(4-{4-[2,4-dichloro-3-(2,4-dimethyl-quinolin-8-yloxymethyl)-benzenesulfonylamino]tetrahydropyran-4-carbonyl}piperazin-1-yl)-5-oxo-pentyl]trimethyl-ammonium chloride, dihydrochloride] displayed a pKi in assay [1] (setting [6]) of 10.3. The pA2 in assay [2] (setting [7]) is listed as 10.3. Moreover, in assay [3], the ED80 came to 0.03 µmol/kg.
`Cc1ccc2cccc(OCc3c(Cl)ccc(S(=O)(=O)NC4(C(=O)N5CCN(C(=O)[C@@H](N)CCC[N+](C)(C)C)CC5)CCOCC4)c3Cl)c2n1` [Example 2, (4-(S)-Amino-5-(4-(4-(2,4-dichloro-3-(2-methyl-quinolin-8-yloxymethyl)-benzenesulfonylamino)tetrahydropyran-4-carbonyl)-piperazin-1-yl-)5-oxo-pentyl)-trimethylammonium chloride, hydrochloride]: the Ki in assay [1] (setting [4]) is 0.0631 nM. Besides, in assay [2] (setting [5]), the Kb was 0.2 nM. Besides, the ED80 in assay [3] is 0.1 µmol/kg.
`Cc1cc(C)c2cccc(OCc3c(Cl)ccc(S(=O)(=O)NC4(C(=O)N5CCN(C(=O)CCCC[N+](C)(C)C)CC5)CCOCC4)c3Cl)c2n1.O=C([O-])C(F)(F)F` [Example 3, [5-(4-{4-[2,4-Dichloro-3-(2,4-dimethyl-quinolin-8-yloxymethyl)-benzene-sulfonylamino]tetrahydropyran-4-carbonyl}piperazin-1-yl)-5-oxo-pentyl]-trimethyl-ammonium trifluoroacetate.] had a pKi in assay [1] (setting [6]) of 10.1. Also, in assay [2] (setting [7]), the pA2 is given as 9.5. Further, the “it Dose” value in assay [3] is on record as 100 nmols/kg.
`CCN=C(NCC)NCCCC(N)C(=O)N1CCN(C(=O)C2(NS(=O)(=O)c3ccc(Cl)c(COc4cccc5c(C)cc(C)nc45)c3Cl)CCCC2)CC1` (stereo not shown) [WO03103671 ex 44] gave a Kb in assay [2] of 1 nM. Further, the ED80 in assay [3] was 0.3 µmol/kg.
